Results on 3 compounds are retold here after patent publication US5840696A (priority 1997, dated 1998).

Assay [1] deals with constitutive nitric oxide synthase (cNOS). The experiment in a line: influence of L-NAME on urine flow rate responses in conscious rats.
Assay [2] has as its target T1, central kappa-opioid receptors (Rattus norvegicus, UniProt P34975).
T1 construct: Anesthetized male Sprague-Dawley rats; from tissue; host or cells: central nervous system of conscious male Sprague-Dawley rats (in vivo, lateral cerebral ventricle injection)
As to conditions: 1 μg i.c.v. pretreatment, previous investigations; cited from earlier work.

T1 sequence (P34975 whole entry): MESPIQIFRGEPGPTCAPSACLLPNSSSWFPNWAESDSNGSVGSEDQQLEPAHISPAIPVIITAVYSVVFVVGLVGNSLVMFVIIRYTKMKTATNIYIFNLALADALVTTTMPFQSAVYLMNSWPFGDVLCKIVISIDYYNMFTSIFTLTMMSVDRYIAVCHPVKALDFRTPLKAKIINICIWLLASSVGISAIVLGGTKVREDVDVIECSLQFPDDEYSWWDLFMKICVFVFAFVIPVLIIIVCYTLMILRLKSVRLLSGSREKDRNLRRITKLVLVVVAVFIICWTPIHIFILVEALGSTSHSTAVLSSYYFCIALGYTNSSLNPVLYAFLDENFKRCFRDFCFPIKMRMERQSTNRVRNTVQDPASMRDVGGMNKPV

As to `COC(=O)[C@@H](N)CCCNC(=N)N[N+](=O)[O-]` [L-NAME, L-nitro arginine methyl ester], the “baseline urine flow rate (V)” value in assay [1] (30 mg/Kg i.v.) is recorded as “did not alter baseline urine flow rate”. Take `Oc1ccc2c3c1O[C@H]1c4[nH]c5c(c4C[C@@]4(O)[C@@H](C2)N(CC2CC2)CC[C@]314)C[C@@]1(O)[C@H]2Cc3ccc(O)c4c3[C@@]1(CCN2CC1CC1)[C@H]5O4` [nor-binaltorphimine]: the “effect on renal responses produced by i.c.v. U50,488H (1 μg)” value in assay [2] was “completely and selectively prevented”. Take `NS(=O)(=O)c1cc(C(=O)O)c(NCc2ccco2)cc1Cl` [furosemide]: in assay [1] (L-NAME pretreatment), the “urine flow rate (V) response after L-NAME” value was “did not alter urine flow rate”.
